Tests used:
Test in all cases: cells
Calu-6 = format: functional, cell-based, Homo sapiens; conditions: Homo sapiens, Calu-6;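 further: growth of human Calu-6 cells, read out by a cell viability assay, IC50 marking inhibition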
Description: SANGER: Inhibition of human Calu-6 cell growth in a cell viability assay.

D-336MG = format: functional, cell-based, Homo sapiens; conditions: Homo sapiens, D-336MG
Description: SANGER: Inhibition of human D-336MG cell growth in a cell viability assay.

DB = format: functional, cell-based; conditions: Homo sapiens
Description: SANGER: Inhibition of human DB cell growth in a cell viability assay.

EFO-21 = format: functional, cell-based, Homo sapiens; conditions: Homo sapiens, EFO-21;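 further: growth inhibition of EFO-21 cells measured with a viability assay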
Description: SANGER: Inhibition of human EFO-21 cell growth in a cell viability assay.

EFO-27 = format: functional, cell-based, Homo sapiens; conditions: Homo sapiens, EFO-27;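 further: growth inhibition of EFO-27 cells, read out with a cell viability assay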
Description: SANGER: Inhibition of human EFO-27 cell growth in a cell viability assay.

ETK-1 = format: functional, cell-based, Homo sapiens; conditions: Homo sapiens, ETK-1;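 further: growth inhibition of human ETK-1 cells, read out with a cell viability assay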
Description: SANGER: Inhibition of human ETK-1 cell growth in a cell viability assay.

EW-16 = format: functional, cell-based, Homo sapiens; conditions: Homo sapiens, EW-16;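 further: growth inhibition of human EW-16 cells, read out as cell viability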
Description: SANGER: Inhibition of human EW-16 cell growth in a cell viability assay.

GB-1 = format: functional, cell-based, Homo sapiens; conditions: Homo sapiens, GB-1;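 further: growth of GB-1 cells judged by a viability assay, IC50 marks the concentration inhibiting growth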
Description: SANGER: Inhibition of human GB-1 cell growth in a cell viability assay.

HCC1187 = format: functional, cell-based, Homo sapiens; conditions: Homo sapiens, HCC1187;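 further: growth inhibition of HCC1187 cells, read out with a cell viability assay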
Description: SANGER: Inhibition of human HCC1187 cell growth in a cell viability assay.

HLE = format: functional, cell-based, Homo sapiens; conditions: Homo sapiens, HLE;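 further: growth inhibition of human HLE cells, read out by a cell viability assay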
Description: SANGER: Inhibition of human HLE cell growth in a cell viability assay.

IGROV-1 = format: functional, cell-based, Homo sapiens; conditions: Homo sapiens, IGROV-1;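 further: reduction of IGROV-1 cell growth, read out with a viability assay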
Description: SANGER: Inhibition of human IGROV-1 cell growth in a cell viability assay.

KGN = format: functional, cell-based, Homo sapiens; conditions: Homo sapiens, KGN;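 further: growth inhibition of KGN cells, read out with a cell viability assay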
Description: SANGER: Inhibition of human KGN cell growth in a cell viability assay.

KNS-81-FD = format: functional, cell-based, Homo sapiens; conditions: Homo sapiens, KNS-81-FD;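 further: growth inhibition of KNS-81-FD cells, read out with a cell viability assay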
Description: SANGER: Inhibition of human KNS-81-FD cell growth in a cell viability assay.

KYSE-510 = format: functional, cell-based, Homo sapiens; conditions: Homo sapiens, KYSE-510;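 further: cell viability readout used to measure how strongly growth of the cell line is suppressed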
Description: SANGER: Inhibition of human KYSE-510 cell growth in a cell viability assay.

KYSE-70 cell line = format: functional, cell-based, Homo sapiens; conditions: Homo sapiens, KYSE-70;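 further: cell viability assay read-out, with IC50 expressing suppression of KYSE-70 cell growth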
Description: SANGER: Inhibition of human KYSE-70 cell growth in a cell viability assay.

LB771-HNC = format: functional, cell-based, Homo sapiens; conditions: Homo sapiens, LB771-HNC;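 further: growth inhibition of LB771-HNC human cells, read out with a cell viability assay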
Description: SANGER: Inhibition of human LB771-HNC cell growth in a cell viability assay.

LU-99A = format: functional, cell-based, Homo sapiens; conditions: Homo sapiens, LU-99A;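 further: growth inhibition of LU-99A cells, read out with a cell viability assay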
Description: SANGER: Inhibition of human LU-99A cell growth in a cell viability assay.

MC116 = format: functional, cell-based; conditions: Homo sapiens;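 further: growth inhibition of MC116 cells, read out with a cell viability assay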
Description: SANGER: Inhibition of human MC116 cell growth in a cell viability assay.

MDA-MB-157 = format: functional, cell-based, Homo sapiens; conditions: Homo sapiens, MDA-MB-157
Description: SANGER: Inhibition of human MDA-MB-157 cell growth in a cell viability assay.

MEL-HO = format: functional, cell-based, Homo sapiens; conditions: Homo sapiens, MEL-HO
Description: SANGER: Inhibition of human MEL-HO cell growth in a cell viability assay.

MKN-1 = format: functional, cell-based, Homo sapiens; conditions: Homo sapiens, MKN-1;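 further: growth inhibition of human MKN1 cells, read out by a cell viability measurement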
Description: SANGER: Inhibition of human MKN1 cell growth in a cell viability assay.

MeWo = format: functional, cell-based, Homo sapiens; conditions: Homo sapiens, MeWo;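 further: growth inhibition of MeWo cells, determined by a cell viability readout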
Description: SANGER: Inhibition of human Mewo cell growth in a cell viability assay.

NB12 = format: functional, cell-based, Homo sapiens; conditions: Homo sapiens, NB12;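 further: growth inhibition of human NB12 cells, read out by a cell viability assay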
Description: SANGER: Inhibition of human NB12 cell growth in a cell viability assay.

NCI-H1299 = format: functional, cell-based, Homo sapiens; conditions: Homo sapiens, NCI-H1299;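 further: growth inhibition of human NCI-H1299 cells, read out by a cell viability assay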
Description: SANGER: Inhibition of human NCI-H1299 cell growth in a cell viability assay.

NCI-H1437 = format: functional, cell-based, Homo sapiens; conditions: Homo sapiens, NCI-H1437;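 further: growth inhibition of human NCI-H1437 cells, read out by a cell viability assay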
Description: SANGER: Inhibition of human NCI-H1437 cell growth in a cell viability assay.

NCI-H1581 = format: functional, cell-based, Homo sapiens; conditions: Homo sapiens, NCI-H1581;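 further: cell growth inhibition read out by a viability assay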
Description: SANGER: Inhibition of human NCI-H1581 cell growth in a cell viability assay.

NCI-H1838 = format: functional, cell-based, Homo sapiens; conditions: Homo sapiens, NCI-H1838;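 further: growth inhibition of NCI-H1838 cells, determined with a cell viability readout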
Description: SANGER: Inhibition of human NCI-H1838 cell growth in a cell viability assay.

NCI-H226 = format: functional, cell-based, Homo sapiens; conditions: Homo sapiens, NCI-H226;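 further: cell viability read-out used to gauge growth inhibition of the cells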
Description: SANGER: Inhibition of human NCI-H226 cell growth in a cell viability assay.

SNU-5 = format: functional, cell-based; conditions: Homo sapiens;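 further: cell viability readout used to measure growth inhibition in human NCI-SNU-5 cells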
Description: SANGER: Inhibition of human NCI-SNU-5 cell growth in a cell viability assay.

OAW-42 = format: functional, cell-based, Homo sapiens; conditions: Homo sapiens, OAW-42;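 further: growth inhibition of OAW-42 cells, read out with a cell viability assay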
Description: SANGER: Inhibition of human OAW-42 cell growth in a cell viability assay.

OCI-AML2 = format: functional, cell-based; conditions: Homo sapiens;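 further: growth inhibition of OCI-AML2 cells, read out with a cell viability assay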
Description: SANGER: Inhibition of human OCI-AML2 cell growth in a cell viability assay.

OVCAR-3 = format: functional, cell-based, Homo sapiens; conditions: Homo sapiens, OVCAR-3;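 further: growth inhibition of human OVCAR-3 cells, determined by a cell viability assay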
Description: SANGER: Inhibition of human OVCAR-3 cell growth in a cell viability assay.

P30-OHK = format: functional, cell-based; conditions: Homo sapiens;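 further: growth inhibition of the P30-OHK cell line, read out with a cell viability assay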
Description: SANGER: Inhibition of human P30-OHK cell growth in a cell viability assay.

RXF 393 = format: functional, cell-based; conditions: Homo sapiens;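 further: growth inhibition of human RXF 393 cells, read out with a cell viability assay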
Description: SANGER: Inhibition of human RXF393 cell growth in a cell viability assay.

Ramos-2G6-4C10 = format: functional, cell-based; conditions: Homo sapiens;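 further: growth inhibition of the cell line, measured by a cell viability read-out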
Description: SANGER: Inhibition of human Ramos-2G6-4C10 cell growth in a cell viability assay.

SHP77 = format: functional, cell-based, Homo sapiens, SHP-77; conditions: Homo sapiens, SHP77;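 further: growth inhibition of human SHP-77 cells measured by a cell viability assay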
Description: SANGER: Inhibition of human SHP-77 cell growth in a cell viability assay.

SJSA-1 = format: functional, cell-based, Homo sapiens; conditions: Homo sapiens, SJSA-1;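 further: growth inhibition of human SJSA-1 cells, read out through a cell viability measurement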
Description: SANGER: Inhibition of human SJSA-1 cell growth in a cell viability assay.

SNB-75 = format: functional, cell-based, Homo sapiens; conditions: Homo sapiens, SNB-75;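 further: cell viability assay measuring growth inhibition of human SNB-75 cells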
Description: SANGER: Inhibition of human SNB75 cell growth in a cell viability assay.

SNU-387 = format: functional, cell-based, Homo sapiens; conditions: Homo sapiens, SNU-387
Description: SANGER: Inhibition of human SNU-387 cell growth in a cell viability assay.

SW948 = format: functional, cell-based, Homo sapiens; conditions: Homo sapiens, SW948;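 further: growth inhibition of SW948 cells, read out with a cell viability assay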
Description: SANGER: Inhibition of human SW948 cell growth in a cell viability assay.

ACN = format: functional, cell-based, Homo sapiens; conditions: Homo sapiens, ACN;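 further: growth inhibition of the human ACN cell line, read out via cell viability testing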
Description: SANGER: Inhibition of human ACN cell growth in a cell viability assay.

AN3-CA = format: functional, cell-based; conditions: Homo sapiens;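 further: growth inhibition of human AN3-CA cells measured by a cell viability assay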
Description: SANGER: Inhibition of human AN3-CA cell growth in a cell viability assay.

BFTC-909 = format: functional, cell-based, Homo sapiens; conditions: Homo sapiens, BFTC-909
Description: SANGER: Inhibition of human BFTC-909 cell growth in a cell viability assay.

BT-474 = format: functional, cell-based, Homo sapiens; conditions: Homo sapiens, BT-474
Description: SANGER: Inhibition of human BT-474 cell growth in a cell viability assay.

C32 = format: functional, cell-based, Homo sapiens; conditions: Homo sapiens, C32;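 further: cell viability assay, with IC50 reflecting inhibition of C32 cell growth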
Description: SANGER: Inhibition of human C32 cell growth in a cell viability assay.

TGBC1TKB = format: functional, cell-based, Homo sapiens; conditions: Homo sapiens, TGBC1TKB;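 further: growth inhibition of TGBC1TKB cells, read out by a cell viability assay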
Description: SANGER: Inhibition of human TGBC1TKB cell growth in a cell viability assay.

U2OS = format: functional, cell-based, Homo sapiens, U-2-OS; conditions: Homo sapiens, U2OS;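 further: growth inhibition of human U-2-OS cells, determined with a cell viability assay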
Description: SANGER: Inhibition of human U-2-OS cell growth in a cell viability assay.

YKG-1 = format: functional, cell-based, Homo sapiens; conditions: Homo sapiens, YKG-1;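 further: cell growth inhibition, read out with a viability assay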
Description: SANGER: Inhibition of human YKG-1 cell growth in a cell viability assay.

no-10 = format: functional, cell-based, Homo sapiens; conditions: Homo sapiens;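 further: growth inhibition of no-10 cells, read out with a cell viability assay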
Description: SANGER: Inhibition of human no-10 cell growth in a cell viability assay.

CHP-212 = format: functional, cell-based, Homo sapiens; conditions: Homo sapiens, CHP-212
Description: SANGER: Inhibition of human CHP-212 cell growth in a cell viability assay.

CN(c1ncccc1CNc1nc(Nc2ccc3c(c2)CC(=O)N3)ncc1C(F)(F)F)S(C)(=O)=O [PF-00562271]
IC50 (Calu-6): > 2560 nM | IC50 (D-336MG): 1860 nM | IC50 (DB): > 2560 nM | IC50 (EFO-21): > 2560 nM | IC50 (EFO-27): 2520 nM | IC50 (ETK-1): 2280 nM | IC50 (EW-16): 2040 nM | IC50 (GB-1): > 2560 nM | IC50 (HCC1187): > 2560 nM | IC50 (HLE): > 2560 nM | IC50 (IGROV-1): 810 nM | IC50 (KGN): > 2560 nM | IC50 (KNS-81-FD): > 2560 nM | IC50 (KYSE-510): > 2560 nM | IC50 (KYSE-70 cell line): > 2560 nM | IC50 (LB771-HNC): > 2560 nM | IC50 (LU-99A): > 2560 nM | IC50 (MC116): > 2560 nM | IC50 (MDA-MB-157): > 2560 nM | IC50 (MEL-HO): 1980 nM | IC50 (MKN-1): > 2560 nM | IC50 (MeWo): > 2560 nM | IC50 (NB12): > 2560 nM | IC50 (NCI-H1299): > 2560 nM | IC50 (NCI-H1437): > 2560 nM | IC50 (NCI-H1581): > 2560 nM | IC50 (NCI-H1838): > 2560 nM | IC50 (NCI-H226): > 2560 nM | IC50 (SNU-5): > 2560 nM | IC50 (OAW-42): > 2560 nM | IC50 (OCI-AML2): > 2560 nM | IC50 (OVCAR-3): > 2560 nM | IC50 (P30-OHK): > 2560 nM | IC50 (RXF 393): > 2560 nM | IC50 (Ramos-2G6-4C10): > 2560 nM | IC50 (SHP77): > 2560 nM | IC50 (SJSA-1): > 2560 nM | IC50 (SNB-75): > 2560 nM | IC50 (SNU-387): 2530 nM | IC50 (SW948): > 2560 nM | IC50 (ACN): 2350 nM | IC50 (AN3-CA): 1220 nM | IC50 (BFTC-909): > 2560 nM | IC50 (BT-474): > 2560 nM | IC50 (C32): > 2560 nM | IC50 (TGBC1TKB): > 2560 nM | IC50 (U2OS): > 2560 nM | IC50 (YKG-1): > 2560 nM | IC50 (no-10): > 2560 nM | IC50 (CHP-212): 2100 nM

Cc1cnc(-c2cnc(NCCNc3ccc(C#N)cn3)nc2-c2ccc(Cl)cc2Cl)[nH]1 [LADUVIGLUSIB]
IC50 (Calu-6): > 2560 nM | IC50 (D-336MG): 846 nM | IC50 (DB): > 2560 nM | IC50 (EFO-21): > 2560 nM | IC50 (EFO-27): > 2560 nM | IC50 (ETK-1): > 2560 nM | IC50 (EW-16): > 2560 nM | IC50 (GB-1): > 2560 nM | IC50 (HCC1187): > 2560 nM | IC50 (HLE): > 2560 nM | IC50 (IGROV-1): > 2560 nM | IC50 (KGN): > 2560 nM | IC50 (KNS-81-FD): > 2560 nM | IC50 (KYSE-510): > 2560 nM | IC50 (KYSE-70 cell line): > 2560 nM | IC50 (LB771-HNC): > 2560 nM | IC50 (LU-99A): > 2560 nM | IC50 (MC116): > 2560 nM | IC50 (MDA-MB-157): > 2560 nM | IC50 (MEL-HO): > 2560 nM | IC50 (MKN-1): > 2560 nM | IC50 (MeWo): > 2560 nM | IC50 (NB12): > 2560 nM | IC50 (NCI-H1299): > 2560 nM | IC50 (NCI-H1437): > 2560 nM | IC50 (NCI-H1581): > 2560 nM | IC50 (NCI-H1838): > 2560 nM | IC50 (NCI-H226): > 2560 nM | IC50 (SNU-5): > 2560 nM | IC50 (OAW-42): > 2560 nM | IC50 (OCI-AML2): > 2560 nM | IC50 (OVCAR-3): > 2560 nM | IC50 (P30-OHK): > 2560 nM | IC50 (RXF 393): > 2560 nM | IC50 (Ramos-2G6-4C10): > 2560 nM | IC50 (SHP77): > 2560 nM | IC50 (SJSA-1): > 2560 nM | IC50 (SNB-75): > 2560 nM | IC50 (SNU-387): > 2560 nM | IC50 (SW948): > 2560 nM | IC50 (ACN): > 2560 nM | IC50 (AN3-CA): > 2560 nM | IC50 (BFTC-909): > 2560 nM | IC50 (BT-474): > 2560 nM | IC50 (C32): > 2560 nM | IC50 (TGBC1TKB): > 2560 nM | IC50 (U2OS): > 2560 nM | IC50 (YKG-1): > 2560 nM | IC50 (no-10): > 2560 nM | IC50 (CHP-212): > 2560 nM

COc1cc([C@@H]2c3cc4c(cc3[C@@H](O[C@@H]3O[C@@H]5CO[C@@H](C)O[C@H]5[C@H](O)[C@H]3O)[C@H]3COC(=O)[C@H]23)OCO4)cc(OC)c1O [ETOPOSIDE]
IC50 (Calu-6): 4060 nM | IC50 (D-336MG): > 16000 nM | IC50 (DB): 6530 nM | IC50 (EFO-21): 11900 nM | IC50 (EFO-27): 3360 nM | IC50 (ETK-1): 2750 nM | IC50 (EW-16): 21.5 nM | IC50 (GB-1): 1610 nM | IC50 (HCC1187): > 16000 nM | IC50 (HLE): 534 nM | IC50 (IGROV-1): 171 nM | IC50 (KGN): 352 nM | IC50 (KNS-81-FD): > 16000 nM | IC50 (KYSE-510): 566 nM | IC50 (KYSE-70 cell line): > 16000 nM | IC50 (LB771-HNC): > 16000 nM | IC50 (LU-99A): 2430 nM | IC50 (MC116): > 16000 nM | IC50 (MDA-MB-157): 12600 nM | IC50 (MEL-HO): 729 nM | IC50 (MKN-1): 382 nM | IC50 (MeWo): 6790 nM | IC50 (NB12): 1080 nM | IC50 (NCI-H1299): 2070 nM | IC50 (NCI-H1437): 3380 nM | IC50 (NCI-H1581): > 16000 nM | IC50 (NCI-H1838): > 16000 nM | IC50 (NCI-H226): 11200 nM | IC50 (SNU-5): 7920 nM | IC50 (OAW-42): 6060 nM | IC50 (OCI-AML2): 559 nM | IC50 (OVCAR-3): > 16000 nM | IC50 (P30-OHK): 1210 nM | IC50 (RXF 393): > 16000 nM | IC50 (Ramos-2G6-4C10): 9940 nM | IC50 (SHP77): > 16000 nM | IC50 (SJSA-1): 2980 nM | IC50 (SNB-75): 10900 nM | IC50 (SNU-387): > 16000 nM | IC50 (SW948): > 16000 nM | IC50 (ACN): 79 nM | IC50 (AN3-CA): 2200 nM | IC50 (BFTC-909): 1160 nM | IC50 (BT-474): > 16000 nM | IC50 (C32): > 16000 nM | IC50 (TGBC1TKB): > 16000 nM | IC50 (U2OS): > 16000 nM | IC50 (YKG-1): 1230 nM | IC50 (no-10): 3490 nM | IC50 (CHP-212): 1410 nM

Reference: ChEMBL document CHEMBL1201861, “Genomics of Drug Sensitity in Cancer screening data, Wellcome Trust Sanger Institute”
